Measurements as given in US20110054028A1, “SUPPLEMENT FOR REDUCING HIV TR[…] METHOD THEREOF” (priority 2009, published 2011).

Tested on: HIV-1 (NL4-3) viral release in HeLa cells
Assay: HIV-1 viral release in HeLa cells transfected with NL4-3 (p24 antigen assay)
Type: cell-based
Settings: HeLa cells expressing NL4-3
Protocol: HeLa cells at 50% confluency in P25 flasks were transiently transfected with 2-3 μg of one of the HIV-1 proviral constructs (pNL4-3; pNL4-3/Udel). One-tenth of the culture media was retrieved from each sample and filtered through a 0.22-μm syringe filter at each time point. Cells were collected at the end and subjected to whole-cell lysis by 1% SDS. The viral content in culture media and in cell lysates was determined by Coulter HIV-1 p24 Antigen Assay kit. Virus release was compared to that from the control (co-transfection of pNL4-3 and pCGI). Data are expressed as mean±SEM from 8 independent experiments.
For the inhibitory effects of K2P channel, different quantities (0.02-10 μM) of arachidonic acid (Sigma) were tested in HeLa cell culture at the 24th hour post-transfection of NL4-3, and one-tenth of the media was retrieved and filtered at each time point. Viral release was compared to that of the untreated HeLa cell set at 100% (control).
Referring to FIG. 3, the inhibitory effects of HIV-1 viral release in HeLa cells at the 4th hour after arachidonic acid (AA) supplementation were shown. […] Moreover, 50-60% of the release inhibition could be achieved by AA at 0.5×10^−7˜10^−6 M.

CCCCC/C=C\C/C=C\C/C=C\C/C=C\CCCC(=O)O [AA, arachidonic acid]
release inhibition (HIV-1 viral release) (4th hour after AA supplementation, AA at 0.5×10^−7˜10^−6 M, untreated HeLa cell set at 100%): 50-60%
suppression of viral release (submicromolar concentrations, 4th hour after supplementation): could suppress viral release
